Laboratory results as given in US9695155B2, “Herbicidal substituted pyrimidinyloxy benzene compounds” (E. I. DU PONT DE NEMOURS AND COMPANY, priority 2013, dated 2017).

Key:
giant foxtail = assay: Test C preemergence; type: in vivo, Setaria faberii; conditions: Setaria faberi, pre-emergence
Method in brief: (§1)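 Preemergence: seeds sown in a loam soil–sand blend and sprayed with test chemical in a non-phytotoxic solvent mixture containing surfactant. Postemergence: plants at 2 to 18 cm (1- to 4-leaf stage) in peat-based medium, treated with the same formulation. Greenhouse 13 to 15 days, then visual rating 0 (no effect) to 100 (complete control).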

oilseed rape [1] = assay: Test C postemergence; type: in vivo, Brassica napus
Method in brief: as §1

corn = assay: Test C preemergence; type: in vivo, Zea mays; conditions: Zea mays, pre-emergence
Method in brief: as §1

morningglory = assay: Test A preemergence; type: in vivo, Ipomoea spp.
Method in brief: (§2)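 Visual injury scored 0–100 (100 = complete control) against untreated controls about 10 days after treatment in a greenhouse. Test chemicals, formulated with surfactant in non-phytotoxic solvent, were sprayed on soil preemergence or on 2-10 cm, one- to two-leaf plants postemergence.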

wheat = assay: Test A preemergence; type: in vivo, Triticum aestivum
Method in brief: as §2

waterhemp = assay: Test C postemergence; type: in vivo, Amaranthus rudis
Method in brief: as §1

velvetleaf [2] = assay: Test C postemergence; type: in vivo, Abutilon theophrasti
Method in brief: as §1

sedge, umbrella = assay: Test B flooded paddy test; type: in vivo, Cyperus difformis; conditions: Cyperus difformis, Flood, 250 g ai/ha; 0 to 100 scale where 0 is no effect and 100 is complete control; read-out: Plant response rating, Sedge, Umbrella
Method in brief: (§3)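 Plants were grown to the 2-leaf stage, then pots were flooded to 3 cm above the soil and compounds were applied directly into the paddy water. That depth was held throughout, and after 13 to 15 days in the greenhouse injury was rated visually against controls on a 0–100 scale (0 no effect, 100 complete control).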

barnyardgrass [3] = assay: Test C preemergence; type: in vivo, Echinochloa crus-galli; conditions: Echinochloa crus-galli, pre-emergence
Method in brief: as §1

barnyardgrass [4] = assay: Test C postemergence; type: in vivo, Echinochloa crus-galli; conditions: Echinochloa crus-galli, post-emergence
Method in brief: as §1

soybean = assay: Test C postemergence; type: in vivo, Glycine max
Method in brief: as §1

velvetleaf [5] = assay: Test A postemergence; type: in vivo, Abutilon theophrasti; conditions: 0 to 100 scale where 0 is no effect and 100 is complete control
Method in brief: as §2

large (Lg) crabgrass = assay: Test C postemergence; type: in vivo, Digitaria sanguinalis; conditions: Digitaria sanguinalis, post-emergence
Method in brief: as §1

barnyardgrass [6] = assay: Test B flooded paddy test; type: in vivo, Echinochloa crus-galli; conditions: Echinochloa crus-galli; Flood, 250 g ai/ha; 0 to 100 scale where 0 is no effect and 100 is complete control; read-out: Plant response rating, Barnyardgrass
Method in brief: as §3

oilseed rape [7] = assay: Test C preemergence; type: in vivo, Brassica napus; conditions: Brassica napus, pre-emergence
Method in brief: as §1

[8] = 31 g ai/ha, postemergence, visual rating, scale 0 to 100 (0 no effect, 100 complete control), 13 to 15 days

FC(F)c1cccc(Oc2ncc(Cl)cn2)c1-n1cc(Br)cn1 [Compound 194, 2-[2-(4-bromo-1H-pyrazol-1-yl)-3-(difluoromethyl)phenoxy]-5-chloropyrimidine]
pest or weed control at 125 g/ha (giant foxtail; 125 g ai/ha, preemergence, scale 0 (no effect) to 100 (complete control), read-out: Foxtail, Giant plant response rating): 100%
pest or weed control at 250 g/ha (giant foxtail; 250 g ai/ha, preemergence, scale 0 (no effect) to 100 (complete control), read-out: Foxtail, Giant plant response rating): 100%
pest or weed control at 62 g/ha (giant foxtail; Preemergence, 62 g ai/ha, scale 0 to 100, 0 no effect, 100 complete control, read-out: Plant response rating, Foxtail, Giant): 90%
Oilseed Rape plant response rating (oilseed rape [1]; [8]): 30
plant injury at 125 g/ha (oilseed rape [1]; Brassica napus, post-emergence, 125 g ai/ha, postemergence, visual rating, scale 0 to 100 (0 no effect, 100 complete control), read-out: Plant response rating, Oilseed Rape): 85%
plant injury at 250 g/ha (oilseed rape [1]; Brassica napus, post-emergence, 250 g ai/ha, postemergence, read-out: Plant response rating (0 to 100), Oilseed Rape): 90%
plant injury at 62 g/ha (oilseed rape [1]; Brassica napus, post-emergence, Postemergence, 62 g ai/ha, scale 0 to 100 (0 no effect, 100 complete control), 13 to 15 days, read-out: Plant response rating, Oilseed Rape): 40%
plant injury at 125 g/ha (corn; 125 g ai/ha, preemergence, scale 0 (no effect) to 100 (complete control), read-out: Corn plant response rating): 15%
plant injury at 250 g/ha (corn; 250 g ai/ha, preemergence, scale 0 (no effect) to 100 (complete control), read-out: Corn plant response rating): 25%
Corn plant response rating (crop injury, 0 = no effect, 100 = complete kill) at 62 g/ha (corn; Preemergence, 62 g ai/ha, scale 0 to 100, 0 no effect, 100 complete control): 0%
Morningglory plant response rating (0 to 100 scale) (morningglory; 125 g ai/ha): 60
pest or weed control at 500 g/ha (morningglory; Ipomoea, pre-emergence, 240 h, 500 g ai/ha, 0 to 100 scale where 0 is no effect and 100 is complete control, read-out: Morningglory plant response rating): 100%
Wheat plant response rating (0 to 100 scale) (wheat; 125 g ai/ha): 20
plant injury at 500 g/ha (wheat; Triticum aestivum, pre-emergence, 240 h, 500 g ai/ha, 0 to 100 scale where 0 is no effect and 100 is complete control, read-out: Wheat plant response rating): 30%
Waterhemp plant response rating (waterhemp; [8]): 80
pest or weed control at 125 g/ha (waterhemp; Amaranthus tuberculatus, post-emergence, 125 g ai/ha, postemergence, visual rating, scale 0 to 100 (0 no effect, 100 complete control), read-out: Plant response rating, Waterhemp): 85%
pest or weed control at 250 g/ha (waterhemp; Amaranthus tuberculatus, post-emergence, 250 g ai/ha, postemergence, read-out: Plant response rating (0 to 100), Waterhemp): 90%
pest or weed control at 62 g/ha (waterhemp; Amaranthus tuberculatus, post-emergence, Postemergence, 62 g ai/ha, scale 0 to 100 (0 no effect, 100 complete control), 13 to 15 days, read-out: Plant response rating, Waterhemp): 80%
Velvetleaf plant response rating (velvetleaf [2]; [8]): 40
pest or weed control at 125 g/ha (velvetleaf [2]; Abutilon theophrasti, post-emergence, 125 g ai/ha, postemergence, visual rating, scale 0 to 100 (0 no effect, 100 complete control), read-out: Plant response rating, Velvetleaf): 70%
pest or weed control at 250 g/ha (velvetleaf [2]; Abutilon theophrasti, post-emergence, 250 g ai/ha, postemergence, read-out: Plant response rating (0 to 100), Velvetleaf): 75%
pest or weed control at 62 g/ha (velvetleaf [2]; Abutilon theophrasti, post-emergence, Postemergence, 62 g ai/ha, scale 0 to 100 (0 no effect, 100 complete control), 13 to 15 days, read-out: Plant response rating, Velvetleaf): 45%
pest or weed control at 250 g/ha (sedge, umbrella): 95%
pest or weed control at 125 g/ha (barnyardgrass [3]; 125 g ai/ha, preemergence, scale 0 (no effect) to 100 (complete control), read-out: Barnyardgrass plant response rating): 100%
pest or weed control at 250 g/ha (barnyardgrass [3]; 250 g ai/ha, preemergence, scale 0 (no effect) to 100 (complete control), read-out: Barnyardgrass plant response rating): 100%
pest or weed control at 62 g/ha (barnyardgrass [3]; Preemergence, 62 g ai/ha, scale 0 to 100, 0 no effect, 100 complete control, read-out: Plant response rating, Barnyardgrass): 85%
pest or weed control at 31 g/ha (barnyardgrass [4]; 31 g ai/ha, postemergence, visual rating, scale 0 to 100 (0 no effect, 100 complete control), 13 to 15 days, read-out: Barnyardgrass plant response rating): 5%
pest or weed control at 125 g/ha (barnyardgrass [4]; 125 g ai/ha, postemergence, visual rating, scale 0 to 100 (0 no effect, 100 complete control), read-out: Plant response rating, Barnyardgrass): 15%
pest or weed control at 250 g/ha (barnyardgrass [4]; 250 g ai/ha, postemergence, read-out: Plant response rating (0 to 100), Barnyardgrass): 55%
pest or weed control at 62 g/ha (barnyardgrass [4]; Postemergence, 62 g ai/ha, scale 0 to 100 (0 no effect, 100 complete control), read-out: Plant response rating, Barnyardgrass): 5%
Soybean plant response rating (soybean; [8]): 30
Soybean plant response rating (crop injury, 0-100 scale) at 125 g/ha (soybean; Glycine max, post-emergence, 125 g ai/ha, postemergence, visual rating, scale 0 to 100 (0 no effect, 100 complete control), read-out: Plant response rating, Soybean): 75%
Soybean plant response rating (crop injury, 0-100 scale) at 250 g/ha (soybean; Glycine max, post-emergence, 250 g ai/ha, postemergence): 85%
Soybean plant response rating (crop injury, 0-100 scale) at 62 g/ha (soybean; Glycine max, post-emergence, Postemergence, 62 g ai/ha, scale 0 to 100 (0 no effect, 100 complete control), 13 to 15 days): 50%
Velvetleaf plant response rating (velvetleaf [5]; 125 g ai/ha): 100
pest or weed control at 500 g/ha (velvetleaf [5]; Abutilon theophrasti, post-emergence, 240 h, 500 g ai/ha, read-out: Plant response rating, Velvetleaf): 100%
pest or weed control at 31 g/ha (large (Lg) crabgrass; 31 g ai/ha, postemergence, visual rating, scale 0 to 100 (0 no effect, 100 complete control), 13 to 15 days, read-out: Crabgrass, Large plant response rating): 10%
pest or weed control at 125 g/ha (large (Lg) crabgrass; 125 g ai/ha, postemergence, visual rating, scale 0 to 100 (0 no effect, 100 complete control), read-out: Plant response rating, Crabgrass, Large): 10%
pest or weed control at 250 g/ha (large (Lg) crabgrass; 250 g ai/ha, postemergence, read-out: Plant response rating (0 to 100), Crabgrass, Large): 50%
pest or weed control at 62 g/ha (large (Lg) crabgrass; Postemergence, 62 g ai/ha, scale 0 to 100 (0 no effect, 100 complete control), 13 to 15 days, read-out: Plant response rating, Crabgrass, Large): 10%
pest or weed control at 250 g/ha (barnyardgrass [6]): 0%
plant injury at 125 g/ha (oilseed rape [7]; 125 g ai/ha, preemergence, scale 0 (no effect) to 100 (complete control), read-out: Oilseed Rape plant response rating): 90%
plant injury at 250 g/ha (oilseed rape [7]; 250 g ai/ha, preemergence, scale 0 (no effect) to 100 (complete control), read-out: Oilseed Rape plant response rating): 100%
plant injury at 62 g/ha (oilseed rape [7]; Preemergence, 62 g ai/ha, scale 0 to 100, 0 no effect, 100 complete control, read-out: Plant response rating, Oilseed Rape): 30%
